Assay results as given in US20090264433A1, “Compounds, Compositions and Methods Comprising Triazine Derivatives” (Institute for OneWorld Health, priority 2008, published 2009).
Where a name gives a salt, the structure may show the parent alone.

Biological target: T1, CFTR channel in human colonic T84 cells (Homo sapiens, UniProt P13569)
T1 construct: results in the phosphorylation and opening of CFTR anion channels; host or cells: human colonic T84 cells
Test: T84 assay (FLIPR membrane potential dye, forskolin/IBMX-stimulated CFTR)
Type: cell-based
Settings: average of at least 2 runs unless annotated n = 1
Summary of the method: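 T84 cells (25,000/well, grown overnight) were washed in HBSS with 10 mM Hepes, then loaded with FLIPR Red membrane potential dye for 45 min with or without compound. CFTR was stimulated with 10 μM forskolin plus 100 μM IBMX after a 10 s baseline. Depolarization was tracked as a fluorescence increase, read every second for 150 s.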

T1 sequence (P13569 whole entry): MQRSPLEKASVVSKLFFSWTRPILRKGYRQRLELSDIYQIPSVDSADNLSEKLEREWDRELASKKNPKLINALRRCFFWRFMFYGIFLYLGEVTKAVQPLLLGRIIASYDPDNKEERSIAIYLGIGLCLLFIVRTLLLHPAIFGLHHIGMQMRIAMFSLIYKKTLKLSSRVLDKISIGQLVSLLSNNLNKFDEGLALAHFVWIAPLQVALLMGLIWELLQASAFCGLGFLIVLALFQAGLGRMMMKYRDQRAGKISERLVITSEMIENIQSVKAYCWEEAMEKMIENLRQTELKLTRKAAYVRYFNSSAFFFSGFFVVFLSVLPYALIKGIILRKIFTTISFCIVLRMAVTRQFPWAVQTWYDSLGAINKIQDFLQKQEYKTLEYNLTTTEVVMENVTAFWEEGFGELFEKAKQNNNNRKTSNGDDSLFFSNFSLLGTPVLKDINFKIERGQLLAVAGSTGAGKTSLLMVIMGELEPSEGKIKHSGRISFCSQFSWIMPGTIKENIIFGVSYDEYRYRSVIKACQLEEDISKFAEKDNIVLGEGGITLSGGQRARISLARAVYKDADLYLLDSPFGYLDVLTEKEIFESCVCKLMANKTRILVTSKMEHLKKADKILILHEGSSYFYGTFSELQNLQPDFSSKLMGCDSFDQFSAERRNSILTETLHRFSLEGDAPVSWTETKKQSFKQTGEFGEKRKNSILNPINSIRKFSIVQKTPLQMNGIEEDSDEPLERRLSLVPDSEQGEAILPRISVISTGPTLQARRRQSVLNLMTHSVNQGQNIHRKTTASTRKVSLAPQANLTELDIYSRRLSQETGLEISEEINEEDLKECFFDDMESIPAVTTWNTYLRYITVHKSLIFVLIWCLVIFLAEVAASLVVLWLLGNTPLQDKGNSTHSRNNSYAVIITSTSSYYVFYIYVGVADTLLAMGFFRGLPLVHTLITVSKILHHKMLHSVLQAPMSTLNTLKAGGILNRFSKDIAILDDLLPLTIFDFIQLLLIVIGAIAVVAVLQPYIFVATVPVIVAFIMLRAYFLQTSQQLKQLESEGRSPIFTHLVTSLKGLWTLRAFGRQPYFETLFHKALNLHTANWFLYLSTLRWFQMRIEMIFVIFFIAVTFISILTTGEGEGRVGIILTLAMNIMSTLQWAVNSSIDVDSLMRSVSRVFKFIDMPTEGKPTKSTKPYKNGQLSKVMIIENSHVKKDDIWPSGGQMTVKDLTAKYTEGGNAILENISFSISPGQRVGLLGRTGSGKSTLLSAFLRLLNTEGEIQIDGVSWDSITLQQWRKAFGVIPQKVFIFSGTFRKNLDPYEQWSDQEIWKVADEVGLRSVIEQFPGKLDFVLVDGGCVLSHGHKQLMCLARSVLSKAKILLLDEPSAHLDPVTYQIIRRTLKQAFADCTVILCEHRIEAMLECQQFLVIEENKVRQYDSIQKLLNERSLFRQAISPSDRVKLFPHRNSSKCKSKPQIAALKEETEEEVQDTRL

Compound	IC50
CN(Cc1ccc(COc2ncc(-c3cc(Cl)c(O)c(Cl)c3)nn2)cc1)Cc1ccc(CN2CCCC2)cc1 [Compound 211, 2,6-dichloro-4-(3-(4-((methyl(4-(pyrrolidin-1-ylmethyl)benzyl)amino)methyl)benzyloxy)-1,2,4-triazin-6-yl)phenol, diformate salt]	8.04 µM
Oc1c(Cl)cc(-c2cnc(OCc3ccc(CN4CCN(c5ccccc5)CC4)cc3)nn2)cc1Cl [Compound 143, 2,6-dichloro-4-(3-(4-((4-phenylpiperazin-1-yl)methyl)benzyloxy)-1,2,4-triazin-6-yl)phenol]	3.75 µM
Oc1c(Br)cc(-c2cnc(OCCCc3ccc(Cl)cc3)nn2)cc1Br [Compound 95, 2,6-dibromo-4-(3-(3-(4-chlorophenyl)propoxy)-1,2,4-triazin-6-yl)phenol]	0.61 µM
Oc1c(Cl)cc(-c2cnc(OCCc3ccc(Cl)cc3)nn2)cc1Cl [Compound 112, 2,6-dichloro-4-(3-(4-chlorophenethoxy)-1,2,4-triazin-6-yl)phenol]	0.17 µM
Oc1c(Br)cc(-c2cnc(OCc3ccccc3Br)nn2)cc1Br [Compound 6, 2,6-dibromo-4-(3-(2-bromobenzyloxy)-1,2,4-triazin-6-yl)phenol]	0.7 µM
Oc1c(Cl)cc(-c2cnc(OCCc3ccc(Br)cc3)nn2)cc1Cl [Compound 117, 4-(3-(4-bromophenethoxy)-1,2,4-triazin-6-yl)-2,6-dichlorophenol]	0.61 µM
Oc1c(Cl)cc(-c2cnc(OCc3ccc(CN4Cc5ccc(F)cc5C4)cc3)nn2)cc1Cl [Compound 178, 2,6-dichloro-4-(3-(4-((5-fluoroisoindolin-2-yl)methyl)benzyloxy)-1,2,4-triazin-6-yl)phenol]	3.31 µM
CC(C)(C)C(=O)N1CCN(Cc2ccc(COc3ncc(-c4cc(Cl)c(O)c(Cl)c4)nn3)cc2)CC1 [Compound 188, 1-(4-(4-((6-(3,5-dichloro-4-hydroxyphenyl)-1,2,4-triazin-3-yloxy)methyl)benzyl)piperazin1-yl)-2,2-dimethylpropan-1-one]	10.3 µM
Oc1c(Br)cc(-c2cnc(OCc3ccccn3)nn2)cc1Br [Compound 104, 2,6-dibromo-4-(3-(pyridin-2-ylmethoxy)-1,2,4-triazin-6-yl)phenol]	16 µM
CN(CCOc1ncc(-c2cc(Cl)c(O)c(Cl)c2)nn1)Cc1ccccc1 [Compound 138, 4-(3-(2-(benzyl(methyl)amino)ethoxy)-1,2,4-triazin-6-yl)-2,6-dichlorophenol]	18.9 µM
Oc1c(Br)cc(-c2cnc(OCc3ccc(OC(F)(F)F)cc3)nn2)cc1Br [Compound 28, 2,6-dibromo-4-(3-(4-(trifluoromethoxy)benzyloxy)-1,2,4-triazin-6-yl)phenol]	15.5 µM
CN(Cc1ccccc1)Cc1ccc(COc2ncc(-c3cc(Cl)c(O)c(Cl)c3)nn2)cc1 [Compound 163, 4-(3-(4-((benzyl(methyl)amino)methyl)benzyloxy)-1,2,4-triazin-6-yl)-2,6-dichlorophenol]	2.66 µM
Oc1c(Br)cc(-c2cnc(OCc3ccc(CN4CCOCC4)cc3)nn2)cc1Br [Compound 110, 2,6-dibromo-4-(3-(4-(morpholinomethyl)benzyloxy)-1,2,4-triazin-6-yl)phenol]	12.9 µM
Oc1c(Br)cc(-c2cnc(COc3ccc(F)cc3F)nn2)cc1Br [Compound 56, 2,6-dibromo-4-(3-((2,4-difluorophenoxy)methyl)-1,2,4-triazin-6-yl)phenol]	25.3 µM
O=C(COc1ccccc1)N1CCN(Cc2ccc(COc3ncc(-c4cc(Cl)c(O)c(Cl)c4)nn3)cc2)CC1 [Compound 155, 1-(4-(4-((6-(3,5-dichloro-4-hydroxyphenyl)-1,2,4-triazin-3-yloxy)methyl)benzyl)piperazin1-yl)-2-phenoxyethanone]	4.95 µM
Cc1cc(Cl)ccc1COc1ncc(-c2cc(Br)c(O)c(Br)c2)nn1 [Compound 29, 2,6-dibromo-4-(3-(4-chloro-2-methylbenzyloxy)-1,2,4-triazin-6-yl)phenol]	1.35 µM
CC(C)(C)OC(=O)N1CCC(COc2ncc(-c3cc(Cl)c(O)c(Cl)c3)nn2)(c2ccccc2)CC1 [Compound 139, tert-butyl 4-((6-(3,5-dichloro-4-hydroxyphenyl)-1,2,4-triazin-3-yloxy)methyl)-4-phenylpiperidine-1-carboxylate]	3.04 µM
Oc1c(Br)cc(-c2cnc(OCc3cccc(Cl)c3)nn2)cc1Br [Compound 7, 2,6-dibromo-4-(3-(3-chlorobenzyloxy)-1,2,4-triazin-6-yl)phenol]	0.72 µM
CN(Cc1ccc(COc2ncc(-c3cc(Cl)c(O)c(Cl)c3)nn2)cc1)Cc1cccnc1 [Compound 222, 2,6-dichloro-4-(3-(4-((methyl(pyridin-3-ylmethyl)amino)methyl)benzyl-oxy)-1,2,4-triazin-6-yl)phenol]	11.2 µM
Oc1c(Cl)cc(-c2cnc(OCc3cccc(Cl)c3Cl)nn2)cc1Cl [Compound 114, 2,6-dichloro-4-(3-(2,3-dichlorobenzyloxy)-1,2,4-triazin-6-yl)phenol]	3.36 µM
Oc1c(Cl)cc(-c2cnc(OCc3ccccc3F)nn2)cc1Cl [Compound 127, 2,6-dichloro-4-(3-(2-fluorobenzyloxy)-1,2,4-triazin-6-yl)phenol]	5.46 µM
Oc1c(Cl)cc(-c2cnc(OCc3ccc(CN4Cc5ccccc5C4)cc3)nn2)cc1Cl [Compound 162, 2,6-dichloro-4-(3-(4-(isoindolin-2-ylmethyl)benzyloxy)-1,2,4-triazin-6-yl)phenol]	2.96 µM
O=S1(=O)CCN(Cc2ccc(COc3ncc(-c4cc(Cl)c(O)c(Cl)c4)nn3)cc2)CC1 [Compound 136, formate salt]	18.3 µM
Oc1c(Cl)cc(-c2cnc(OCc3ccc(F)c(F)c3)nn2)cc1Cl [Compound 147, 2,6-dichloro-4-(3-(3,4-difluorobenzyloxy)-1,2,4-triazin-6-yl)phenol]	2.83 µM
OCCN(Cc1ccc(COc2ncc(-c3cc(Cl)c(O)c(Cl)c3)nn2)cc1)Cc1cccnc1 [Compound 191, 2,6-dichloro-4-(3-(4-(((2-hydroxyethyl)(pyridin-3-ylmethyl)amino)methyl)benzyl-oxy)-1,2,4-triazin-6-yl)phenol]	19.8 µM
CN(Cc1ccc(COc2ncc(-c3cc(Cl)c(O)c(Cl)c3)nn2)cc1)C(CN1CCOCC1)c1ccccc1 (centres unmarked) [Compound 196, 2,6-dichloro-4-(3-(4-((methyl(2-morpholino-1-phenylethyl)amino)methyl)benzyloxy)-1,2,4-triazin-6-yl)phenol]	5.89 µM
Oc1c(Cl)cc(-c2cnc(NCc3ccc(Cl)cc3)nn2)cc1Cl [Compound 135, 2,6-dichloro-4-(3-(4-chlorobenzylamino)-1,2,4-triazin-6-yl)phenol]	6.14 µM
CN1CCCN(Cc2ccc(CN(C)Cc3ccc(COc4ncc(-c5cc(Cl)c(O)c(Cl)c5)nn4)cc3)cc2)CC1 [Compound 201, 2,6-dichloro-4-(3-(4-((methyl(4-((4-methyl-1,4-diazepan-1-yl)methyl)benzyl)amino)methyl)benzyloxy)-1,2,4-triazin-6-yl)phenol]	9.99 µM
CC1(C)Cc2cccc(OCc3ncc(-c4cc(Br)c(O)c(Br)c4)nn3)c2O1 [Compound 128, 2,6-dibromo-4-(3-((2,2-dimethyl-2,3-dihydrobenzofuran-7-yloxy)methyl)-1,2,4-triazin-6-yl)phenol]	28.8 µM
